# Laboratory results published in patent publication US20120214847A1, “2-[1-PHENYL-5-HYDROXY-4a-SUBSTITUTED-HEXAHYDROCYCLOPENTA[F]INDAZOL-5-YL]ETHYL PHENYL DERIVATIVES AS GLUCOCORTICOID RECEPTOR LIGANDS” (Merck Sharp & Dohme Corp., priority 2009, published 2012).
# pEC50: −log10 of the molar value.
# Target: T1, human GR (Homo sapiens, UniProt P04150)
# T1 construct: naturally expresses the human GR; endogenous in cells
# T1 sequence (P04150 1-777): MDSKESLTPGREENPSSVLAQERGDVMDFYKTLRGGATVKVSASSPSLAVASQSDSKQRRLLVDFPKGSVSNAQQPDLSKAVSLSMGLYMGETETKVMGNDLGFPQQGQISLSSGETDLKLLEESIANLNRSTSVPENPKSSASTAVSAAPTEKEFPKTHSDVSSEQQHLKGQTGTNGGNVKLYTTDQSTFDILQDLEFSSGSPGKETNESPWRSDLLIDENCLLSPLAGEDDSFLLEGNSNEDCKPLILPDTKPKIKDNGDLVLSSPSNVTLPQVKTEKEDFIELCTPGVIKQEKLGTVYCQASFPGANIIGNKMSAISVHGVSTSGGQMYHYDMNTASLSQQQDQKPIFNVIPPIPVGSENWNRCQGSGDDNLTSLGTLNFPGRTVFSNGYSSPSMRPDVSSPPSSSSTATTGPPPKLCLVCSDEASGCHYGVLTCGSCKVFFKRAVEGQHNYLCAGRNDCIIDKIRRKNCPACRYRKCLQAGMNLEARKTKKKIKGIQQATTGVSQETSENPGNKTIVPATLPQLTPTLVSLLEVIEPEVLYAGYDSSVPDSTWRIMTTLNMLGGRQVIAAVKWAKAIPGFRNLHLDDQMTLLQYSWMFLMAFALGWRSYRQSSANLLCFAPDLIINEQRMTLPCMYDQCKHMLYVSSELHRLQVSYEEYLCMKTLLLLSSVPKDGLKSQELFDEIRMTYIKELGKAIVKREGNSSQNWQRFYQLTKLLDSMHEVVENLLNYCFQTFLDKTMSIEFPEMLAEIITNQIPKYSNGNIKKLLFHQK
# Assay: Transrepression assay (GITAR), TNFα-β-lactamase reporter in U937 cells
# Assay type: cell-based
# Settings: for pEC50: IP = inflection point; for Emax: U-937, U937 cells
# From the text: Transrepression Assay (GITAR)
# This assay assesses the ability of test compounds to control transcription from the TNFα-β-lactamase reporter gene in U937 cells, a human myelomonocytic leukemia cell line that naturally expresses the human GR. The assay measures compound dependent-repression of the TNFa promoter linked to a reporter gene.
# The human U937 cells that had been stablely transfected with the TNF-a promoter driving ˜-lactamase are used for this assay. U937 cells contain an endogenous glucocorticoid receptor (GR). Cells are maintained in RPMI 1640 Growth medium (GibcoCat#11875-093) containing 25 mM HEPES, 10% FBS, 2 mM L-Glutamine, 1 mM Sodium pyruvate, 25 μg/ml Gentamicin (Gibed Cat#1571 0-064), 1:1000 2-Mercaptoethanol (Gibco Cat#21985-023) and 0.8 mg/ml G418 (Gibco Cat#10131-027). The density of the cells in the flask needs to be about 1×10^6-3×10^6/ml at the time of harvest. Usually, the cells are split to 1.2˜1.4×10^5/ml (1:10) 3 days prior to the assay. 50,000 cells/well are plated in 96 well black-walled plates the day of assay. Test compounds are added 10 J.lL/well, and cells are incubated at 37° C. for 30˜45 min. For assaying compounds, first dilute 1:10 in DMSO to make 1 mM, then further dilute 1:100 in medium to make 10× stock prior to adding to the cells. Add 50 ng/ml PMA (Sigma, cat#P8139) 10 μL/well to a final concentration 5 ng/ml, and 1 μg/ml LPS (Sigma, cat#L4130) 10 μL/well to a final concentration 100 ng/ml. Incubate cells at 370 C overnight for −18 hr. PMA is stored frozen as […] in DMSO. Dilute 1:10 in DMSO for a working stock of 10 μg/ml and store at −20° C. For assaying, dilute the 10 μg/ml working stock 1:200 in medium to make a 10× solution (50 ng/ml). Store frozen LPS at 1 mg/ml in PBS, dilute 1:1000 in medium to make 10×μg/ml) for the assay. Add 6× loading buffer (CCF2-AM) 20 μL/well, and incubate at room temperature for 70-90 min. […] The activity repressed by 100 nM dexamethasone alone is set as 100% activity.
# [1] = activity repressed by 100 nM dexamethasone alone set as 100%
Compound,pEC50 (U937 cells),Emax [1] [%],"Transrepression U937 Cells GITAR Emax (%) (U937 cells, activity repressed by 100 nM dexamethasone alone set as 100%)"
"O=S(=O)(c1ccccc1CC[C@]1(O)CCC2=Cc3c(cnn3-c3ccc(F)cc3)C[C@@]21C1CC1)C1CC1 [Example 63, (4aR,5R)-4a-Cyclopropyl-5-{2-[2-(cyclopropylsulfonyl)phenyl]ethyl}-1-(4-fluorophenyl)-1,4,4a,5,6,7-hexahydrocyclopenta[f]indazol-5-ol]",6.90,75,–
"CC[C@]12Cc3cnn(-c4ccc(F)cc4)c3C=C1CC[C@@]2(O)CC1OC(=O)c2ccccc21 (stereo partly drawn) [Example 71, 3-{[(4aS,5R)-4a-Ethyl-1-(4-fluorophenyl)-5-hydroxy-1,4,4a,5,6,7-hexahydrocyclopenta[f]indazol-5-yl]methyl}-2-benzofuran-1(3H)-one]",7.19,74,–
"CC[C@]12Cc3cnn(-c4ccccc4)c3C=C1CC[C@@]2(O)CC(O)c1ccccn1 (single isomer, unassigned) [Example 67a]",6.66,54,–
CC[C@]12Cc3cnn(-c4ccccc4)c3C=C1CC[C@@]2(O)CCc1ccc(F)cc1C(N)=O [Example 6],6.84,75,–
"CC[C@]12Cc3cnn(-c4ccc(F)cc4)c3C=C1CC[C@@]2(O)CC(O)c1ncccc1F (stereo partly drawn) [Example 77, (4aS,5R)-4a-Ethyl-1-(4-fluorophenyl)-5-[2-(3-fluoropyridin-2-yl)-2-hydroxyethyl]-1,4,4a,5,6,7-hexahydrocyclopenta[f]indazol-5-ol]",6.79,–,60
"CC[C@]12Cc3cnn(-c4ccc(F)cc4)c3C=C1CC[C@@]2(O)CCc1ccccc1C(O)C(N)=O (stereo partly drawn) [Example 25, 2-(2-{2-[(4aS,5R)-4a-Ethyl-1-(4-fluorophenyl)-5-hydroxy-1,4,4a,5,6,7-hexahydrocyclopenta[f]indazol-5-yl]ethyl}phenyl)-2-hydroxyacetamide]",6.93,74,–
"NC(=O)c1cc(F)ccc1CC[C@]1(O)CCC2=Cc3c(cnn3-c3ccc(F)cc3)C[C@@]21C1CC1 [Example 39, 2-{2-[(4aR,5R)-4a-Cyclopropyl-1-(4-fluorophenyl)-5-hydroxy-1,4,4a,5,6,7-hexahydrocyclopenta[f]indazol-5-yl]ethyl}-5-fluorobenzamide]",7.08,71,–
"NC(=O)CNC(=O)c1ccccc1CC[C@]1(O)CCC2=Cc3c(cnn3-c3ccc(F)cc3)C[C@@]21C1CC1 [Example 47, N-(2-Amino-2-oxoethyl)-2-{2-[(4aR,5R)-4a-cyclopropyl-1-(4-fluorophenyl)-5-hydroxy-1,4,4a,5,6,7-hexahydrocyclopenta[f]indazol-5-yl]ethyl}benzamide]",8.05,83,–
"CC[C@]12Cc3cnn(-c4cccnc4)c3C=C1CC[C@@]2(O)CCc1ccccc1C(N)=O [Example 13, 2-{2-[(4aS,5R)-4a-Ethyl-5-hydroxy-1-(pyridin-3-yl)-1,4,4a,5,6,7-hexahydrocyclopenta[f]indazol-5-yl]ethyl}benzamide]",6.79,76,–
"NC(=O)c1cccnc1CC[C@]1(O)CCC2=Cc3c(cnn3-c3ccc(F)cc3)C[C@@]21C1CC1 [Example 1, 2-{2-[(4aR,5R)-4a-Cyclopropyl-1-(4-fluorophenyl)-5-hydroxy-1,4,4a,5,6,7-hexahydrocyclopenta[f]indazol-5-yl]ethyl}pyridine-3-carboxamide]",7.26,77,–
"NC(=O)Cc1c(F)cccc1CC[C@]1(O)CCC2=Cc3c(cnn3-c3ccc(F)cc3)C[C@@]21C1CC1 [Example 61, 2-(2-{2-[(4aR,5R)-4a-Cyclopropyl-1-(4-fluorophenyl)-5-hydroxy-1,4,4a,5,6,7-hexahydrocyclopenta[f]indazol-5-yl]ethyl}-6-fluorophenyl)acetamide]",7.80,72,–
"CC(C)(CO)NC(=O)c1ccccc1CC[C@]1(O)CCC2=Cc3c(cnn3-c3ccc(F)cc3)C[C@@]21C1CC1 [Example 45, 2-{2-[(4aR,5R)-4a-Cyclopropyl-1-(4-fluorophenyl)-5-hydroxy-1,4,4a,5,6,7-hexahydrocyclopenta[f]indazol-5-yl]ethyl}-N-(1-hydroxy-2-methylpropan-2-yl)benzamide]",8.05,85,–
"N#Cc1ccccc1CC[C@]1(O)CCC2=Cc3c(cnn3-c3cccnc3)C[C@@]21C1CC1 [Example 30, 2-{2-[(4aR,5R)-4a-Cyclopropyl-5-hydroxy-1-(pyridin-3-yl)-1,4,4a,5,6,7-hexahydrocyclopenta[f]indazol-5-yl]ethyl}benzonitrile]",6.75,63,–
"COc1ccnc(CC[C@]2(O)CCC3=Cc4c(cnn4-c4ccc(F)cc4)C[C@@]32C2CC2)c1C(N)=O [Example 54, 2-{2-[(4aR,5R)-4a-Cyclopropyl-1-(4-fluorophenyl)-5-hydroxy-1,4,4a,5,6,7-hexahydrocyclopenta[f]indazol-5-yl]ethyl}-4-methoxypyridine-3-carboxamide]",7.32,77,–
"NS(=O)(=O)c1ccccc1CC[C@]1(O)CCC2=Cc3c(cnn3-c3cccnc3)C[C@@]21C1CC1 [Example 24, 2-{2-[(4aR,5R)-4a-Cyclopropyl-5-hydroxy-1-(pyridin-3-yl)-1,4,4a,5,6,7-hexahydrocyclopenta[f]indazol-5-yl]ethyl}benzenesulfonamide]",8.15,83,–
"CC[C@]12Cc3cnn(-c4ccc(F)cc4)c3C=C1CC[C@@]2(O)CC(O)c1ccc(F)cn1 (single isomer, unassigned) [Example 69a]",6.95,74,–
"CC[C@]12Cc3cnn(-c4ccccc4)c3C=C1CC[C@@]2(O)CC(O)c1cc(C#N)ccn1 (stereo partly drawn) [Example 75, 2-{2-[(4aS,5R)-4a-Ethyl-5-hydroxy-1-phenyl-1,4,4a,5,6,7-hexahydrocyclopenta[f]indazol-5-yl]-1-hydroxyethyl}pyridine-4-carbonitrile]",6.63,67,–
"N#Cc1c(F)cccc1CC[C@]1(O)CCC2=Cc3c(cnn3-c3ccccc3)C[C@@]21C1CC1 [Example 28, 2-{2-[(4aR,5R)-4a-Cyclopropyl-5-hydroxy-1-phenyl-1,4,4a,5,6,7-hexahydrocyclopenta[f]indazol-5-yl]ethyl}-6-fluorobenzonitrile]",6.91,88,–
"CC[C@]12Cc3cnn(-c4ccc(F)cc4)c3C=C1CC[C@@]2(O)CCc1cc(C(F)(F)F)ccn1 [Example 34, (4aS,5R)-4a-Ethyl-1-(4-fluorophenyl)-5-{2-[4-(trifluoromethyl)pyridin-2-yl]ethyl}-1,4,4a,5,6,7-hexahydrocyclopenta[f]indazol-5-ol]",6.90,85,–
"NC(=O)[C@H](F)c1c(F)cccc1CC[C@]1(O)CCC2=Cc3c(cnn3-c3ccc(F)cc3)C[C@@]21C1CC1 [Example 57, (2R)-2-(2-{2-[(4aR,5R)-4a-Cyclopropyl-1-(4-fluorophenyl)-5-hydroxy-1,4,4a,5,6,7-hexahydrocyclopenta[f]indazol-5-yl]ethyl}-6-fluorophenyl)-2-fluoroethanamide]",6.97,86,–
"CS(=O)(=O)c1ccccc1CC[C@]1(O)CCC2=Cc3c(cnn3-c3ccc(F)cc3)C[C@@]21C1CC1 [Example 58, (4aR,5R)-4a-Cyclopropyl-1-(4-fluorophenyl)-5-{2-[2-(methylsulfonyl)phenyl]ethyl}-1,4,4a,5,6,7-hexahydrocyclopenta[f]indazol-5-ol]",8.30,88,–
